# Tests used:
# MDA-MB-231 cells = test: Cell validation: cytotoxicity in MDA-MB-231 cells (CellTiter-Glo); assay type: cell-based; conditions: cytotoxicity in MDA-MB-231 cells; for IC50: Homo sapiens
# Protocol: (§1) The in vitro validation was performed by measuring KIF2C kinesin activity using malachite green-based phosphate colorimetric assay (BioVision). […] The microtubules from porcine brain tubulin (Cytoskeleton) or purified from HEK293 cells in Free-style medium (293Fs) were dissolved in the BRB80 buffer (80 mM PIPES pH 6.8, 1 mM EGTA, 1 mM MgCl2, 1 mM GTP, 1 mM DTT, and 10% DMSO) at 37° C. for 2 hr. Phosphates released from kinesin-mediated ATP hydrolysis was measured by adding 30 μL of the phosphate colorimetric reagent (BioVision), incubated for 10 min, and then measured with absorbance at 650 nm. […] The cell validation was performed by measuring cytotoxicity in MDA-MB-231 cells. The cells were cultured in a 96-well plate at a confluence of 2000 cells/well with indicates compounds for specific days. When the time was up, the culture medium in the plate was aspirated and replaced with a prepared CellTiter-Glo reagent (Promega)/DMEM mixture (1:1 mix of CellTiter-Glo reagent and serum-supplemented DMEM). After incubation for 10 min, the luminescence was measured with an ELISA plate reader to determine the cell viability.
# The cancer cells were cultured in a 96-well plate at a confluence of 1000-2000 cells/well with indicated drugs for specific days. When the time was up, the culture medium in the plate was aspirated and replaced with a prepared CellTiter-Glo reagent/DMEM mixture (1:1 mix of CellTiter-Glo reagent and serum-supplemented DMEM). After incubation for 10 min, the luminescence (proportional to the number of living cells) was measured with an ELISA plate reader to determine the cell viability.
# KIF2C = molecular target: T1, KIF2C (Homo sapiens, UniProt Q99661); test: In vitro validation: KIF2C kinesin activity, malachite green-based phosphate colorimetric assay; assay type: biochemical; conditions: concentration that inhibits 50% of KIF2C activity
# T1 construct: KIF2C (216-598 a.a.); 6xHis (C); made in house; host or cells: E. coli BL21 (DE3), pET-28a
# T1 sequence (Q99661 216-598): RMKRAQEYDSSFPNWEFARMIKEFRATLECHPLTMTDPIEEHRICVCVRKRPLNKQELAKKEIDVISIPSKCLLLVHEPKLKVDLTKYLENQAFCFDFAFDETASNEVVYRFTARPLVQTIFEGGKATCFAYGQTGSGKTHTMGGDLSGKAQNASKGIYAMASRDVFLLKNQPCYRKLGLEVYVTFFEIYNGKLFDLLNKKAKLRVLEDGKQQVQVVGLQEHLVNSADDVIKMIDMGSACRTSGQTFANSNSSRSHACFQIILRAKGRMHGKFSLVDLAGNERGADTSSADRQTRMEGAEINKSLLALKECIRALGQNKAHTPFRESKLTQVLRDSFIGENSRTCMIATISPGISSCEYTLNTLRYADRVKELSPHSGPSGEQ
# Protocol: as §1
# In vitro kinesin activity was measured using malachite green-based phosphate colorimetric assay (BioVision). […] The microtubules from porcine brain tubulin (Cytoskeleton) or purified from HEK293 cells in Free-style medium (293Fs) were dissolved in the BRB80 buffer (80 mM PIPES pH 6.8, 1 mM EGTA, 1 mM MgCl2, 1 mM GTP, 1 mM DTT, and 10% DMSO) at 37° C. for 2 hr. Phosphates released from kinesin-mediated ATP hydrolysis was measured by adding 30 μL of the phosphate colorimetric reagent (BioVision), incubated for 10 min, and then measured with absorbance at 650 nm.
# Constructs of sN+M regions of KIF2C (216-598 a.a.), KIF2A (181-562 a.a.) and KIF2B (171-553 a.a.) with C-terminal 6×His tag were subcloned into pET-28a vector and expressed in BL21 (DE3) E. coli cells (Novartis) cultured in Luria-Bertani medium supplemented with 50 ug/mL kanamycin at 37° C. After induction with 0.8 mM IPTG for 18 hr at 20° C., the cells were pelleted by centrifugation at 6000 rpm for 30 min at 10° C. The collected pellets were resuspended in 30 mL of buffer A (20 mM Tris-HCl pH 7.5, 500 mM NaCl, 10 mM imidazole, 1% CHAPS, and 1 mM PMSF) and next subjected to a high-pressure homogenizer (EmulsiFlex-C3) for cell lysis. After removing the cell debris by centrifugation at 13000 rpm for 30 min at 10° C., the recombinant Kinesin-13 in the supernatant was purified using nickel affinity chromatography. Firstly, the supernatant was applied to the Ni-NTA column (GE Healthcare) pre-equilibrated with buffer A. Secondly, the column was washed with 10× column volumes of buffer A to remove the unwanted proteins. The washed column was then eluted with 10× column volumes of buffer containing increasing concentrations of imidazole (40, 100, 300, 1000 mM), and the majority of the recombinant Kinesin-13 protein was eventually obtained in a fraction of 300 mM imidazole. The fractions containing the recombinant Kinesin-13 were subsequently concentrated in the buffer B (20 mM Tris-HCl pH 7.5, 10 mM imidazole, 50 mM NaCl, 2 mM DTT) using an Amicon® Ultra filter (Millipore) and subjected to cation exchange column (Capto S, GE Healthcare) for further purification. The recombinant Kinesin-13 was then eluted in elution buffer (20 mM Tris-HCl pH 7.5 and 2 mM DTT) containing 400 mM of NaCl and stored at −80° C. for long-term storage.
Structure (SMILES),EC50 (KIF2C),Cell validation (IC50) (MDA-MB-231 cells),IC50 (MDA-MB-231 cells)
"CC1=C(C(=O)OC(C)C)C(c2ccc(-n3ccnc3)cc2)n2c(s/c(=C\c3ccc(OCC(=O)N4CCN(C)CC4)cc3)c2=O)=N1 (centres unmarked) [21S0 (46), isopropyl (Z)-5-(4-(1H-imidazol-1-yl)phenyl)-7-methyl-2-(4-(2-(4-methylpiperazin-1-yl)-2-oxoethoxy)benzylidene)-3-oxo-2,3-dihydro-5H-thiazolo[3,2-a]pyrimidine-6-carboxylate]",50 to 100 µM,+ +,
CC1=C(C(=O)OC(C)(C)C)C(c2ccc(Cl)cc2)n2c(s/c(=C\c3ccc(OCC(=O)N4CCN(C)CC4)cc3)c2=O)=N1 (centres unmarked) [25S0 (95)],> 100 µM,+ +,
COC(=O)C1=C(C)N=c2s/c(=C\c3ccc(OCC(=O)N4CCN(C)CC4)cc3)c(=O)n2C1c1ccc(Cl)cc1 (centres unmarked) [26S0 (93)],50 to 100 µM,+ +,
"CC1=C(C(=O)CC(C)C)C(c2ccc(Cl)cc2)n2c(s/c(=C\c3ccc(OCC(=O)N4CCN(C)CC4)cc3)c2=O)=N1 (centres unmarked) [27S0 (98), (Z)-5-(4-chlorophenyl)-7-methyl-6-(3-methylbutanoyl)-2-(4-(2-(4-methylpiperazin-1-yl)-2-oxoethoxy)benzylidene)-5H-thiazolo[3,2-a]pyrimidin-3(2H)-one]",50 to 100 µM,+ +,
"CC1=C(C(=O)OCc2ccccc2)C(c2ccc(Cl)cc2)n2c(s/c(=C\c3ccc(OCC(=O)N4CCN(C)CC4)cc3)c2=O)=N1 (centres unmarked) [29S0 (97), benzyl (Z)-5-(4-chlorophenyl)-7-methyl-2-(4-(2-(4-methylpiperazin-1-yl)-2-oxoethoxy)benzylidene)-3-oxo-2,3-dihydro-5H-thiazolo[3,2-a]pyrimidine-6-carboxylate]",50 to 100 µM,+ + +,

# The next lines start with results.
EC50 (KIF2C),Structure (SMILES),Cell validation (IC50) (MDA-MB-231 cells),IC50 (MDA-MB-231 cells)
> 100 µM,"CC1=C(C(=O)OC(C)C)C(c2ccc(Cl)cc2)n2c(s/c(=C\c3ccc(OCC(=O)N4CCN(C5CCCCC5)CC4)cc3)c2=O)=N1 (centres unmarked) [22S0 (17), propan-2-yl (2Z)-5-(4-chlorophenyl)-2-(4-(2-(4-cyclohexylpiperazin-1-yl)-2-oxoethoxy)benzylidene)-7-methyl-3-oxo-2,3-dihydro-5H-[1,3]thiazolo[3,2-a]pyrimidine-6-carboxylate]",,> 50 µM
< 50 µM,"CC1=C(C(=O)OC(C)C)C(c2ccc(Cl)cc2)n2c(s/c(=C\c3ccc(OCC(=O)N4CCC(N(C)C)CC4)cc3)c2=O)=N1 (centres unmarked) [23S0 (18), propan-2-yl (2Z)-5-(4-chlorophenyl)-2-(4-(2-(4-(dimethylamino)piperidin-1-yl)-2-oxoethoxy)benzylidene)-7-methyl-3-oxo-2,3-dihydro-5H-[1,3]thiazolo[3,2-a]pyrimidine-6-carboxylate]",+ + +,
< 50 µM,"CC1=C(C(=O)OC(C)C)C(c2ccc(Cl)cc2)n2c(s/c(=C\c3ccc(OCC(=O)N4CCC(N(C)C)CC4)cc3)c2=O)=N1.O=C(O)/C=C\C(=O)O (centres unmarked) [23S9 (134), isopropyl (Z)-5-(4-chlorophenyl)-2-(4-(2-(4-(dimethylamino)piperidin-1-yl)-2-oxoethoxy)benzylidene)-7-methyl-3-oxo-2,3-dihydro-5H-thiazolo[3,2-a]pyrimidine-6-carboxylate maleate]",+ + +,
< 50 µM,"CC1=C(C(=O)OC(C)C)C(c2ccc(Cl)cc2)n2c(s/c(=C\c3ccc(OCC(=O)N4CCC(N5CCN(C)CC5)CC4)cc3)c2=O)=N1 (centres unmarked) [24S0 (19), isopropyl (Z)-5-(4-chlorophenyl)-7-methyl-2-(4-(2-(4-(4-methylpiperazin-1-yl)piperidin-1-yl)-2-oxoethoxy)benzylidene)-3-oxo-2,3-dihydro-5H-thiazolo[3,2-a]pyrimidine-6-carboxylate]",+ + + +,
> 100 µM,"CCC1=C(C(=O)OC(C)C)C(c2ccc(Cl)cc2)n2c(s/c(=C\c3ccc(OCC(=O)N4CCN(C)CC4)cc3)c2=O)=N1 (centres unmarked) [28S0 (105), isopropyl (Z)-5-(4-chlorophenyl)-7-ethyl-2-(4-(2-(4-methylpiperazin-1-yl)-2-oxoethoxy)benzylidene)-3-oxo-2,3-dihydro-5H-thiazolo[3,2-a]pyrimidine-6-carboxylate]",,20 to 50 µM

# Source: patent US20250129101A1, “Compound, Pharmaceutical Composition Comprising the Same and Method for Treating Cancer Using the Same” (NATIONAL TSING HUA UNIVERSITY, priority 2023, published 2025)
